Laboratory results from patent US7803757B2, “Peptides based on the sequence of human lactoferrin and their use” (PharmaSurgics in Sweden AB, priority 1998, dated 2010).
Peptide text beside a SMILES is read from it. * marks the point of attachment. Acm = CC(=O)NC*

Tests used:
[1] = tested on: Candida albicans ATCC 64549; assay: fungicidal and growth inhibitory activity, Candida albicans ATCC 64549 (Example 8); assay type: cell-based
Protocol: Candida albicans ATCC 64549 (1·10^5/ml) was incubated in the presence of the peptides during 2 hours at 37° C. in diluted growth medium (BHI, twofold serial dilutions starting with 50 μg/ml). The fungicidal activity was measured by culturing 5 μl from each incubation well on Saboroud agar plates.
The inhibition of growth was measured spectrophotometrically after 20 hours of incubation.

Candida albicans [2] = assay: fungicidal activity against Candida albicans strains (Example 4); assay type: cell-based
Protocol: In this example the fungicidal activity of the peptides according to the invention was tested and compared to the fungicidal activity of human lactoferrin. Different concentrations of hLF, peptide 3 and peptide 4 were incubated with different strains of Candida albicans and Candida krusei during 1-2 hours at 37° C. in 0.05 mM KCl at pH 7.0 at two different occasions—experiment I and II, respectively. After incubation samples were taken for plating on Saboroud plates.

Candida albicans [3] = assay: fungicidal activity against Candida albicans, comparison with EP-A-0 629 347 peptides (Example 7); assay type: cell-based; conditions: C. albicans, I (tenfold steps), 5 · 10^3 yeast cells per ml
Protocol: (§1) In this example an in vitro test was performed to compare the bactericidal and fungicidal activity of the peptides according to the invention with peptides described in EP-A-0 629 347. The peptide according to the invention used was peptide 4, and the peptides according to EP-A-0 629 347 called Morinaga 10, Morinaga 11, Morinaga 12, and Morinaga 13.
(§2) The peptides were incubated with E. coli O14 and Candida albicans. Two concentrations of C. albicans yeast cells were tested, 5·10^6 and 5·10^3 per ml. Different concentrations of the peptides were tested.
(§3) After the incubation, samples were taken for bacterial plating. Serial dilutions of tenfold steps were used in the experiments marked with I in table 5 and of twofold steps in the experiments marked with II.

C. albicans [4] = assay: concentration for killing of 99% of C. albicans at different pH (Example 13, FIG. 2); assay type: cell-based; conditions: FIG. 2, different pH
From the text: In this example the concentrations needed of three peptides according to the invention for killing of 99% of C. albicans at different pH was compared to a reference peptide. The peptides according to the invention were peptide 2 (linear), peptide 3 (cyclic), peptide 4 (linear), peptide 5 (cyclic) and peptide 7 (lactam bridged), all capped. The reference peptides used were an uncapped cyclic form and an uncapped linear form of a Morinaga peptide, Morinaga 24 and 25. The results are illustrated in FIG. 2.

C. neoformans = assay: fungicidal activity MMC99%, C. neoformans (Example 27); assay type: cell-based; conditions: BHI diluted 1/100 (Table 23)
Protocol: In the examples, the minimal microbicidal concentrations (MMC) and minimal inhibitory concentrations (MIC) were determined as follows, unless otherwise specified in the examples. Bacterial or fungal strains were cultured in BHI medium over night at 37° C. A volume of the culture was transferred to a new tube with BHI and incubated for two more hours. Thereafter the cells were spun down and the pellet was suspended in BHI medium diluted 1/100 (1% BHI). The concentration of bacterial or fungal cells was spectrophotometrically determined at 650 nm. The microbial concentrations were also determined by viable counts. Peptides serially diluted in 1% BHI by twofold or tenfold steps were added in triplicate to the wells of a microtiterplate (200 μl per well). […] The microplate was incubated for another 20 hours at 37° C. and thereafter analysed spectrophotometrically at 650 nm in a microplate reader (Emax, Molecular Devices, USA). […] The MIC value was defined as the concentration giving no increase in the absorbance value above the background level after 20 hours of incubation.
In this example the fungicidal activity of three of the peptides according to the invention was studied, and tested against three different fungi. […] The concentration of each peptide needed to kill 99% of the fungi (MMC99%) was determined.

E. coli O14 = assay: bactericidal activity against E. coli O14, comparison with EP-A-0 629 347 peptides (Example 7); assay type: cell-based; conditions: E. coli O14, II: serial dilutions of twofold steps
Protocol: as §1, §2, §3

C. albicans [5] = assay: microbicidal activity MMC99%, C. albicans (Example 28); assay type: cell-based; conditions: C. albicans (Table 24)
Summary of the method: (§4)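 Peptides serially diluted in 1% BHI were incubated with E. coli O6K5 or C. albicans (~1-5×10^5 cells/ml) for 2 h at 37 °C, then spotted on blood agar overnight. MMC99% was the peptide concentration causing 99% reduction of the inoculum.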

[6] = tested on: LPS-induced IL-6 response in a monocytic cell line (THP-1); assay: inhibition of LPS-induced IL-6 response in THP-1 cells (Example 5); assay type: cell-based; conditions: agent added 30 minutes after LPS
Protocol: In this example an in vitro test was performed to study the anti-inflammatory activity of the peptides according to the invention. More precisely, the inhibitory effect of the peptides according to the invention on the LPS-induced IL-6 response in a monocytic cell line (THP-1) was studied and compared to the effect of human lactoferrin by use of the method described by I. Mattsby-Baltzer et al., Pediatr. Res. 40:257-262, 1996. The IL-6 response in the THP-1 cells was induced by addition of LPS. hLF, peptide 3 and peptide 4, respectively, were added 30 minutes after LPS.

E. coli O6K5 [7] = assay: microbicidal activity MMC99%, E. coli O6K5 (Example 28); assay type: cell-based; conditions: E. coli O6K5 (Table 24)
Summary of the method: as §4

E. coli O6K5 [8] = assay: urinary tract infection in mice, bacteria (CFU) in kidney (Example 6); assay type: in vivo; conditions: 500 μg per mouse orally 30 minutes after instillation, 24 hours
Protocol: E. coli O6K5 was instilled into the urinary bladder of mice. 30 minutes after instillation the different agents specified in table 5 were administered orally in an amount of 500 μg per mouse and 24 hours after instillation the number of bacteria (CFU) present in bladder and in kidney was determined.
The control group consisted of 10 animals in experiment I and of 23 animals in experiment II. The animals in the control groups were given tap water instead of peptide or hLF.

C. albicans [9] = assay: fungicidal activity MMC99%, C. albicans (Example 27); assay type: cell-based; conditions: BHI diluted 1/100 (Table 23)
Protocol: In the examples, the minimal microbicidal concentrations (MMC) and minimal inhibitory concentrations (MIC) were determined as follows, unless otherwise specified in the examples. Bacterial or fungal strains were cultured in BHI medium over night at 37° C. A volume of the culture was transferred to a new tube with BHI and incubated for two more hours. Thereafter the cells were spun down and the pellet was suspended in BHI medium diluted 1/100 (1% BHI). The concentration of bacterial or fungal cells was spectrophotometrically determined at 650 nm. The microbial concentrations were also determined by viable counts. Peptides serially diluted in 1% BHI by twofold or tenfold steps were added in triplicate to the wells of a microtiterplate (200 μl per well). The bacterial or fungal cell solutions were added in 10 μl volumes to give a final concentration of approximately 1-5×10^5 cells per ml in the well. The microplate was incubated at 37° C. in a humid chamber for two hours. Thereafter 5 μl was taken from each well and added as a drop onto a blood agar plate and incubated over night at 37° C. The microplate was incubated for another 20 hours at 37° C. and thereafter analysed spectrophotometrically at 650 nm in a microplate reader (Emax, Molecular Devices, USA). The concentration of peptide causing a 99% reduction of the inoculum after 2 hours of incubation was defined as the MMC99%. The MIC value was defined as the concentration giving no increase in the absorbance value above the background level after 20 hours of incubation.
In this example the fungicidal activity of three of the peptides according to the invention was studied, and tested against three different fungi. The fungi were incubated in BHI medium diluted 1/100. The concentration of each peptide needed to kill 99% of the fungi (MMC99%) was determined.

Structure (SMILES): CC[C@H](C)[C@H](NC(=O)[C@H](CSCNC(C)=O)NC(=O)[C@H](CO)NC(=O)[C@@H](NC(=O)[C@@H]1CCCN1C(=O)[C@@H]1CCCN1C(=O)CNC(=O)[C@H](CCCNC(=N)N)NC(=O)[C@@H](NC(=O)[C@H](CCCCN)NC(=O)[C@H](CCCNC(=N)N)NC(=O)[C@H](CCSC)NC(=O)[C@H](CC(N)=O)NC(=O)[C@H](CCCNC(=N)N)NC(=O)[C@H](CCC(N)=O)NC(=O)[C@H](Cc1c[nH]c2ccccc12)NC(=O)[C@H](CCC(N)=O)NC(=O)[C@H](Cc1ccccc1)NC(=O)[C@H](CSCNC(C)=O)NC(=O)[C@H](CCCCN)NC(=O)[C@@H](NC(C)=O)[C@@H](C)O)C(C)C)C(C)C)C(=O)N[C@@H](CCCCN)C(=O)N[C@@H](CCCNC(=N)N)C(N)=O [Peptide 4] (Ac-TKC(Acm)FQWQRNMRKVRGPPVSC(Acm)IKR-NH2)
- Concentration of agent for 100% killing ([1]; C. albicans ATCC 64549 1·10^5/ml, 2 hours 37° C., diluted BHI): 6.2 µg/mL
- Concentration of agent for inhibition of growth ([1]; C. albicans ATCC 64549, spectrophotometrically after 20 hours): 6.2 µg/mL
- ratio hLF/pep. (concentration for 99% killing) (Candida albicans [2]; Exp. I, C. albicans ATCC 64549): >40
- Concentration of agent for 99% killing (Candida albicans [2]; Exp. I, C. albicans ATCC 64549, 0.05 mM KCl pH 7.0, 1-2 hours 37° C.): 1.25 µg/mL
- ratio hLF/pep. (concentration for 99% killing) (Candida albicans [2]; Exp. I, C. albicans CCUG 90028): >40
- Concentration of agent for 99% killing (Candida albicans [2]; Exp. I, C. albicans CCUG 90028, 0.05 mM KCl pH 7.0): 1.25 µg/mL
- ratio hLF/pep. (concentration for 99% killing) (Candida albicans [2]; Exp. II, C. albicans ATCC 64549): >133
- Concentration of agent for 99% killing (Candida albicans [2]; Exp. II, C. albicans ATCC 64549, 0.05 mM KCl pH 7.0): 1.5 µg/mL
- ratio hLF/pep. (concentration for 99% killing) (Candida albicans [2]; Exp. II, C. albicans CCUG 599): >133
- Concentration of agent for 99% killing (Candida albicans [2]; Exp. II, C. albicans CCUG 599, 0.05 mM KCl pH 7.0): 1.5 µg/mL
- ratio hLF/pep. (concentration for 99% killing) (Candida albicans [2]; Exp. II, C. albicans CCUG 1759): >133
- Concentration of agent for 99% killing (Candida albicans [2]; Exp. II, C. albicans CCUG 1759, 0.05 mM KCl pH 7.0): 1.5 µg/mL
- Concentration of agent for 100% killing (Candida albicans [3]): 10 µg/mL
- concentration needed for killing of 99% of C. albicans, compared with the capped cyclic peptides (in words) (C. albicans [4]): better effects than the capped cyclic peptides
- MMC99% (C. neoformans): ≦3.1
- Concentration of agent for 100% killing (E. coli O14): 12 µg/mL
- MMC99% (C. albicans [5]): 5
- % inhibition of LPS response ([6]; IL-6 response in THP-1 cells): 39%
- inhibitory activity on the LPS-induced IL-6 response (in words) ([6]; THP-1 cells): significant inhibition
- MMC99% (E. coli O6K5 [7]): 20
- Statistical comparison of treatment group with control group of the number of bacteria, CFU, present in kidney (p, Mann-Whitney) (E. coli O6K5 [8]; Exp I, mouse strain CH/HeN): p = 0.0137
- Statistical comparison of treatment group with control group of the number of bacteria, CFU, present in kidney (p, Mann-Whitney) (E. coli O6K5 [8]; Exp II, mouse strain C3H/Tif): p = 0.0102
- MMC99% (C. albicans [9]): 6.3
